Experimental data taken from patent US6071899A, “Azetidinone derivatives for the treatment of atherosclerosis” (SmithKline Beecham p.l.c., priority 1994, dated 2000).

How the values were obtained:
Lp-PLA2 = target: T1, Lp-PLA2 (Homo sapiens, UniProt Q13093); assay: Screen for Lp-PLA2 inhibition; format: biochemical; settings: artificial substrate (A) 20 μM, 37° C., pH 7.4, 10 min pre-incubation, 405 nm; enzyme partially purified from human plasma
T1 construct: Lp-PLA2 was partially purified by density gradient centrifugation of human plasma; from tissue; host or cells: human plasma (pooled active fractions, partially purified)
T1 sequence (Q13093 22-441): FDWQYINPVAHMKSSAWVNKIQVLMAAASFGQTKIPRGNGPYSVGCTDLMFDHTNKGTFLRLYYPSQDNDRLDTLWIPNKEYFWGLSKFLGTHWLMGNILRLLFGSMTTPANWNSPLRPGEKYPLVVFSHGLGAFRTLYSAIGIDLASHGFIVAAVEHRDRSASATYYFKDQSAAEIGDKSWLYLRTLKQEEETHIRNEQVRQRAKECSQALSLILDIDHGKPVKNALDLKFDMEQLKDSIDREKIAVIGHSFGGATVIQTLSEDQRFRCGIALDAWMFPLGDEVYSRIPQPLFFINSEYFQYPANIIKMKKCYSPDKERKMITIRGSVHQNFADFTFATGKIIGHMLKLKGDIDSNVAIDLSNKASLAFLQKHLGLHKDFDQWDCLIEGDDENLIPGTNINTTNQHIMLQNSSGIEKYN
Experimental: 1. Screen for Lp-PLA2 inhibition.
Enzyme activity was determined by measuring the rate of turnover of the artificial substrate (A) at 37° C. in 50 mM HEPES (N-2-hydroxyethylpiperazine-N'-2-ethanesulphonic acid) buffer containing 150 mM NaCl, pH 7.4. [drawing 7] Assays were performed in 96 well titre plates.
Lp-PLA2 was partially purified by density gradient centrifugation of human plasma. Active fractions were pooled and used as the source of Lp-PLA2. The enzyme was pre-incubated at 37° C. with vehicle or test compound for 10 min in a total volume of 180 μl. The reaction was then initiated by the addition of 20 μl 10× substrate (A) to give a final substrate concentration of 20 μM. The reaction was followed at 405 nm for 20 minutes using a plate reader with automatic mixing. The rate of reaction was measured as the rate of change of absorbance.

[1] = tested on: lyso-PtdCho formation in human LDL; assay: Inhibition of Cu2+ stimulated lyso-phosphatidylcholine (lyso-PtdCho) formation; format: biochemical; settings: 5 μM Cu2+
Experimental: 2. Inhibition of Cu 2+stimulated lyso-phosphatidylcholine (lyso-PtdCho) formation.
A 1 ml aliquot of human LDL (0.25 mg protein/ml) was incubated for 15 min at 37° C. with compound or vehicle. 5 μM Cu^2+ was then added to allow oxidation/lyso-PtdCho formation to occur. The incubation was terminated by the addition of 3.75 ml chloroform/methanol/c HCl (200:400:5,v/v/v). Following the addition of 1.25 ml chloroform and 1.25 ml 0.1M HCl, the mixture was vortexed and centrifuged. The lower phase was carefully removed and the upper phase re-extracted with an equal volume of synthetic lower phase. The extracts were pooled and dried under nitrogen.
Phospholipids were reconstituted into 50 μl chloroform/methanol (2:1 v/v). 10 μl aliquots were spotted on to pre-run silica gel HPTLC plates and then developed in chloroform/methanol 25-30% methylamine (60:20:5 v/v/v). Plates were subsequently sprayed with the flourescent indicator, 2-p-toluidinylnaphthalene-6-sulphonic acid (1 mM in 50 mM Tris/HCl, pH 7.4) to identify phospholipid components. Fluorescence was measured at 222 nm using a CAMAG TLC scanner. Lipoprotein lyso-PtdCho content was quantified using a standard curve (0.05-0.5 μg) prepared in parallel.

Row | Structure (SMILES) | IC50 (Lp-PLA2) [nM] | IC50 ([1]; human LDL 0.25 mg protein/ml, 15 min pre-incubation at 37° C., read-out: IC50 (inhibition of LDL lyso-PtdCho accumulation stimulated by copper ions)) [nM] | inhibition of LDL lyso-PtdCho accumulation stimulated by copper ions (in words) ([1]; human LDL)
1 | CCCC[S+]([O-])C1CC(=O)N1CC(=O)CCc1ccccc1 (centres unmarked) [Example 18, 4-Butylsulfinyl-1-(4-phenyl-2-oxobutyl)azetidin-2-one] | 30 to 400 | – | –
2 | C[S+]([O-])C1CC(=O)N1CC(=O)NCCCCCCc1ccccc1 (centres unmarked) [Example 63, N-6-Phenylbexyl-(4-methylsulphinyl-2-oxoazetidin-1-yl)acetamide] | 30 to 400 | – | –
3 | C[C@@H]1C(=O)N(CC(=O)NCCCCCCc2ccccc2)[C@H]1[S+](C)[O-] (relative stereo) [Example 71, trans-N-(6-phenylhexyl)-(3-methyl-4-methylsulphinyl-2-oxoazetidin-1-yl)acetamide] | 30 to 400 | ~60 | dose dependently inhibits
4 | CCCCCC[S+]([O-])C1CC(=O)N1CC(=O)NCCCCCCc1ccccc1 (single isomer, unassigned) [Example 79, N-(6-Phenylhexyl)-(4-n-hexylsulfinyl-2-oxoazetidin-1-yl)acetamide] | 30 to 400 | – | –
5 | C[S+]([O-])C1CC(=O)N1CCCCc1ccccc1 (centres unmarked) [Example 84, 4-Methylsulfinyl-1-(4-phenylbutyl)-azetidin-2-one] | 30 to 400 | – | –
6 | CCCCCC[S+]([O-])C1CC(=O)N1CC(=O)CCc1ccccc1 (single isomer, unassigned) [Example 24, 4-Hexylsulfinyl-1-(4-phenyl-2-oxobutyl)azetidin-2-one] | 30 to 400 | – | –
